According to patent publication US10357577B2, “Bacterial nitroreductase enzymes and methods relating thereto” (AUCKLAND UNISERVICES LIMITED, priority 2010, dated 2019):
Where “and” joins values, the source holds several entries; their conditions need not be identical. Equal values may be shown once. Entries after “also recorded” stand apart in the source; their conditions may differ.

Assays:
[1] = test system: nitroreductase NfsA-expressing HCT116 'activator' cells; assay: MCL (multicellular layer) bystander experiment, NfsA-dependent activation; assay type: cell-based, human; conditions: for bystander property (in words): MCL of NTR-expressing and parental HCT116 cells; for estimated bystander effect efficiency (BEE) / calculated bystander effect efficiency (BEE): hyperoxic (95% O2) MCLs; for estimated bystander effect efficiency (BEE): at concentrations achievable in α-MEM+10% FBS, activator fraction differs per experiment; for calculated bystander effect efficiency (BEE): HCT116-WT targets mixed with NfsA activators (activator fraction differs per experiment)
Description: Displacement of the Target cell survival curve to the left (T to Tc) is indicative of the presence of a cytotoxic metabolite(s) able to diffusible out of the sensitive activator (A) cell population. The prodrug concentrations for 10% survival (C10) of target cells (wild-type cells) grown without activators (T), targets in co-culture (TC) and activators (nfsA-expressing cells) in co-culture (AC) were determined by interpolation. BEE-Bystander effect efficiency calculates the drugs bystander effect: ((Log C10T−Log C10TC)/(Log C10T−Log C10AC)).
The prodrug concentrations for 10% survival (C10) of target cells (wild-type cells) grown without activators (T), and targets in co-culture (TC) and activators (NTR-expressing cells) in co-culture (AC) can be determined. The bystander effect of a test prodrug is measured by the bystander effect efficiency which can be calculated using the algorithm ((Log C10T−Log C10TC)/(Log C10T−Log C10AC)).
Millicell-CM membrane inserts (Millipore) were coated in calf-skin collagen type III (Sigma-Aldrich) to facilitate cell attachment. […] After exposure, inserts were disaggregated (0.07% trypsin, 10 min, 37° C., followed by 100 μg/ml DNAase I (Sigma-Aldrich). Cells were counted, resuspended and plated in P60 dishes to determine clonogenic survival. To discriminate clonogenic activator (NTR+) from target (NTR−) colonies cells were plated in non-selective medium (total cells) and medium containing 1 μM puromycin (activator cells). Colonies were grown in a 37° C. 5% CO2 incubator for 10 days before staining with methylene blue (2 g/liter in 50% v/v aqueous ethanol). Colonies containing >50 cells were counted as clonogenic survivors. Surviving fractions for each population was calculated as the plating efficiency for drug-treated MCLs/untreated controls. The drug concentrations for 10% survival (C10) of target cells grown without activators (T), targets in co-culture (Tc) and activators in co-culture (Ac) was determined by interpolation.

[2] = biological target: T1, NfsB(Ec) (Escherichia coli, UniProt P38489); assay: Growth Inhibition assay, NTR over-expressing E. coli SOS-R2; assay type: cell-based; conditions: elevated substrate concentrations (400 μM F-MISO, 600 μM HX4)
T1 construct: expressed in transfected cells; host or cells: E. coli SOS-R2 (endogenous nfsA, nfsB, nemA and azoR deleted) carrying pUCX::ntr
T1 sequence (P38489 whole entry): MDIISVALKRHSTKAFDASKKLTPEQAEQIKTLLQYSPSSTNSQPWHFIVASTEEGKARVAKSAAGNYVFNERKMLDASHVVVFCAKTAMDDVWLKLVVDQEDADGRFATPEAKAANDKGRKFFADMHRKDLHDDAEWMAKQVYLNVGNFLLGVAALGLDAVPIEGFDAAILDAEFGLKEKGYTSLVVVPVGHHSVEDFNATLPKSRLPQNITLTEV
Description: FIG. 34 (B) illustrates the metabolism of F-MISO by members of the 58 NTR over-expression library as measured by Growth Inhibition assay as described for FIG. 34A except that cells were challenged with 400 μM F-MISO.
FIG. 35 (B) illustrates the metabolism of HX4 by members of the 58 NTR over-expression library as measured by Growth Inhibition assay as described for FIG. 35A except that cells were challenged with 600 μM HX4.
Individual microtiter plate wells containing 200 μl LB+amp, 0.4% glucose were inoculated with SOS-R2 pUCX::ntr strains and incubated overnight at 30° C., 200 rpm. Ten μl of the overnight culture were used to inoculate 190 μl of fresh assay media (LB+amp, 0.05 mM IPTG, 0.2% glucose) and incubated at 30° C., 200 rpm for 3 h. The 200 μl culture was split into 100 μl duplicates which were supplemented with either 100 μl challenge media (assay media+250 uM EF5+2% DMSO) or 100 μl control media (assay media+2% DMSO). Initial OD600 readings were recorded and then plates incubated at 30° C., 200 rpm for 4 h after which final OD600 readings were taken and used to calculate strains respective growth inhibition in EF5 presence.

[3] = test system: HCT116 cells expressing E. coli NfsA; assay type: cell-based, human; conditions: low cell density proliferation assay
Description: (§1) FIGS. 10 (B) and 10 (C) illustrates the results of evaluation of 2-nitroimidazole clinical imaging candidates with E. coli and non-E. coli NTRs. Stably-expressing cells were treated with varying concentration of 2-nitroimidazole prodrugs diluted in αMEM+5% FCS+P/S. Cells were exposed to prodrug for 18 hrs, washed and left to regrow for 5 days. IC50 was determined as the concentration of prodrug required to inhibit cell growth by 50% of untreated controls. IC50 values are mean for ≥2 independent experiments. WT:NTR ratio-ratio of IC50 means from WT cells versus NTR-expressing cell lines.
as §1, with “FIG. 21” for “FIGS. 10 (B) and 10 (C)”, “antiproliferative activity (IC50 value)” for “the results”, “prodrug” for “evaluation of 2-nitroimidazole clinical imaging”, “nitroreductases.” for “NTRs.”, “prodrug” for “2-nitroimidazole prodrugs”, “ratio-interexperimental ratio” for “ratio-ratio”
(§2) Isolated NTR gene sequences were subject to PCR and introduced in the bicistronic plasmid F579 via Gateway cloning (Invitrogen) as described by Prosser et al. (2010, Biochem Pharmacol, 79, 678-687). Stably transfected cell lines were created by transfection of the relevant plasmid using FuGENE 6 Transfection Reagent (Roche). Transfected cell populations were maintained by passage in puromycin
(§3) Cells were passaged in alpha-Minimal Essential Media, (αMEM; Gibco) supplemented with 5% FBS, (GIBCO NZ) without antibiotics. Cell were passaged for <3 months from frozen stocks and confirmed Mycoplasma free (PCR-ELISA; Roche Diagnostics). Cells were aliquoted into the 96-well plate (100 μL/well) and cells were left to attach (≥4 hrs). […] Plates were read on an ELx 808 Absorbance Microplate Reader (Bio-Tek Instruments). Absorbance was measured at 490 nm and 450 nm (final absorbance 490-450). […]

[4] = test system: HCT116 cells expressing E. coli NfsB; assay: Monolayer antiproliferative (IC50) assay, NTR-expressing HCT116; assay type: cell-based, human; conditions: low cell density proliferation assay
Description: as §1
as §1, with “FIG. 21” for “FIGS. 10 (B) and 10 (C)”, “antiproliferative activity (IC50 value)” for “the results”, “prodrug” for “evaluation of 2-nitroimidazole clinical imaging”, “nitroreductases.” for “NTRs.”, “prodrug” for “2-nitroimidazole prodrugs”, “ratio-interexperimental ratio” for “ratio-ratio”
as §2, §3

[5] = test system: HCT116-WT (parental) 'target' cells; assay: MCL (multicellular layer) bystander experiment, target cells; assay type: cell-based, human
Excerpt: FIG. 22 illustrates NfsA-dependent activation of TH-302 in an MCL bystander experiment. It includes a representative bystander efficiency graph. TH-302 dose-response curves for hyperoxic (95% O2) multicellular layers (MCLs) of HCT116-WT (parental) ‘target’ cells in the absence (T) and presence (Tc) of nitroreductase NfsA-expressing HCT116 ‘activator’ cells (A). MCLs are composed of ‘targets only’ (T) or as intimate mixtures of 29% (±4%) NfsA activators (A) and 71% targets (Tc). Displacement of the Target cell survival curve to the left (T to Tc) is indicative of the presence of a cytotoxic metabolite(s) able to diffusible out of the sensitive activator (A) cell population. The prodrug concentrations for 10% survival (C10) of target cells (wild-type cells) grown without activators (T), targets in co-culture (TC) and activators (nfsA-expressing cells) in co-culture (AC) were determined by interpolation. BEE-Bystander effect efficiency calculates the drugs bystander effect: ((Log C10T−Log C10TC)/(Log C10T−Log C10AC)). The calculated bystander effect efficiency is 43.4%.
Bystander effects can be quantified according to methods described in Wilson et al, 2002, Cancer Res. 62:1425-1432, by employing a 3D multicellular layer (MCL) composed of a minority (1%) of NTR-expressing ‘activator’ cells, mixed with a majority (99%) of parental (wild-type) ‘target’ cells. The prodrug concentrations for 10% survival (C10) of target cells (wild-type cells) grown without activators (T), and targets in co-culture (TC) and activators (NTR-expressing cells) in co-culture (AC) can be determined. The bystander effect of a test prodrug is measured by the bystander effect efficiency which can be calculated using the algorithm ((Log C10T−Log C10TC)/(Log C10T−Log C10AC)). […]
Millicell-CM membrane inserts (Millipore) were coated in calf-skin collagen type III (Sigma-Aldrich) to facilitate cell attachment. […] Surviving fractions for each population was calculated as the plating efficiency for drug-treated MCLs/untreated controls. […]

| SMILES | bystander property (in words) [1] | estimated bystander effect efficiency (BEE) [1] | other results |
| --- | --- | --- | --- |
| O=C(Cn1ccnc1[N+](=O)[O-])NCCO [Etanidazole, N-(2-hydroxyethyl)-2-(2-nitro-1H-imidazol-1-yl)acetamide] | zero bystander property | 0% | – |
| O=[N+]([O-])c1nccn1Cc1cn(C(CO)CF)nn1 (stereo not shown) [HX4, 3-fluoro-2-(4-((2-nitro-1H-imidazol-1-yl)methyl)-1H-1,2,3-triazol-1-yl)propan-1-ol] | – | – | activity with 2-NI substrate (in words) [2]: substantial activity |
| COCC(O)Cn1ccnc1[N+](=O)[O-] (stereo not shown) [Misonidazole, 1-methoxy-3-(2-nitro-1H-imidazol-1-yl)propan-2-ol] | zero bystander property | 0% | – |
| O=C1CN(/N=C/c2ccc([N+](=O)[O-])o2)C(=O)N1 [Nitrofurantoin, (E)-1-(((5-nitrofuran-2-yl)methylene)amino)imidazolidine-2,4-dione] | zero bystander property | – | calculated bystander effect efficiency (BEE) [1]: 0% |
| CS(=O)(=O)OCCN(CCBr)c1c(C(=O)NCCO)cc([N+](=O)[O-])cc1[N+](=O)[O-] [PR-104A, 2-((2-bromoethyl)(2-((2-hydroxyethyl)carbamoyl)-4,6-dinitrophenyl)amino)ethyl methanesulfonate] | marked bystander property | 89% | prodrug activation (in words) [3]: significant activation; prodrug activation (in words) [4]: significant activation |
| O=[N+]([O-])c1nccn1CC(O)CNCCBr (stereo not shown) [RB6145] | lack any measurable bystander effect | – | – |
| O=[N+]([O-])c1nccn1CC(O)CN1CC1 (stereo not shown) [RSU-1069, 1-(aziridin-1-yl)-3-(2-nitro-1H-imidazol-1-yl)propan-2-ol] | lack any measurable bystander effect | – | – |
| CN(CCO)C(=O)c1cc([N+](=O)[O-])cc([N+](=O)[O-])c1N(CCBr)CCBr [SN31609, 2-(bis(2-bromoethyl)amino)-N-(2-hydroxyethyl)-N-methyl-3,5-dinitrobenzamide] | – | – | prodrug activation (in words) [3]: significant activation; prodrug activation (in words) [4]: significant activation |
| Cn1c(COP(=O)(NCCBr)NCCBr)cnc1[N+](=O)[O-] [TH-302, N,N′-bis(2-bromoethyl)-(1-methyl-2-nitro-1H-imidazol-5-yl)methyl phosphorodiamidic acid ester] | – | – | fold less sensitive, NfsA negative cells versus nfsA-expressing cells ([5]; MCL model): 210 fold; C10 (concentration for 10% survival) of NfsA negative cells in co-culture ([5]; MCL, targets in co-culture with activators): 1.86 µM; C10 (concentration for 10% survival) of NfsA negative cells ([5]; MCL, targets without activators): 18.9 µM; calculated bystander effect efficiency (BEE) [1]: 43.4% and 43%; sterilisation of the nfsA-expressing cells in the MCL model ([1]; incubation with 90 nM TH-302): Greater than 90% |
| CCS(=O)(=O)CCn1c([N+](=O)[O-])cnc1C [Tinidazole, 1-(2-(ethylsulfonyl)ethyl)-2-methyl-5-nitro-1H-imidazole] | lack any measurable bystander effect; also recorded: zero bystander property | 0% | – |
